According to US7030143B2, “Heterocyclic compounds” (Nippon Shinyaku Co., Ltd., priority 2000, dated 2006):

Experiments:
KK-A^y mice = experiment: Effects on carbohydrate and lipid metabolism in KK-A^y mouse; type: in vivo; settings: oral, 4 days; for Percent change of each parameter compared to control group (%): AI: Atherogenic Index = (TC − HDL-C)/HDL-C; for Percent change of each parameter compared to control group (%): BG: plasma glucose level; for Percent change of each parameter compared to control group (%): Ins: plasma insulin level; for Percent change of each parameter compared to control group (%): TG: plasma triglyceride level; for Percent change of each parameter compared to control group (%): HDL-C: serum HDL-C level; for Percent change of each parameter compared to control group (%): (V)LDL-C: sum of VLDL-C and LDL-C level in serum
Method: The experiment was conducted using the compounds described in the Examples as test compounds and Troglitazone (5-[4-(6-hydroxy-2,5,7,8-tetramethylchroman-2-ylmethoxy)benzyl]-2,4-thiazolidinedione) as a control compound.
Each test compound was orally administered to KK-A^y mice (10 week old, male), NIDDM model animal, for 4 days at a given dosage. On the next day of the last administration, blood was collected from tail end blood vessels under non-fasting conditions to prepare heparinized plasma. Thereafter, blood was collected from an abdominal large vein under pentobarbital anesthesia to prepare serum. The glucose level (BG), triglyceride level (TG) and insulin level (Ins) in plasma were measured using a glucose CII-test Wako (Wako Pure Chemical Industries, Ltd), CLINTECH TG-S (IATORON LABORATORIES, INC.) or triglyceride E-test WAKO (Wako Pure Chemical Industries, Ltd), and a rat insulin measurement kit (Morinaga Biochemistry Research Institute) or REBIS-insulin-mouse-T (Mouse Insulin ELISA (TMB) KIT, Shibayagi Co., Ltd), respectively. Also, the sum of VLDL-C level and LDL-C level in serum (hereinafter, referred to as “(V)LDL-C”), total cholesterol level (TC) and HDL-C level were measured using a high performance liquid chromatography system for the measurement of lipoprotein cholesterol (TOSOH CORPORATION). (V)LDL-C level was measured because VLDL-C and LDL-C cannot be measured separately. Atherogenic Index (AI) was calculated according to the following formula: AI=[(TC level)−(HDL-C level)]/(HDL-C level).

Cc1oc(-c2ccccc2)nc1CCCCCOC(C)(C)C(=O)O (hydrate or solvate) [Example 34, 2-Methyl-2-[5-(5-methyl-2-phenyloxazol-4-yl)pentyloxy]propionic acid]
melting point: 66 to 68 °C

Cc1oc(-c2ccccc2)nc1CCCCCCCOC(C)(C)C(=O)O [Example 36, 2-Methyl-2-[7-(5-methyl-2-phenyloxazol-4-yl)heptyloxy]propionic acid]
melting point: 70 to 71 °C

Cc1oc(-c2ccc(F)cc2)nc1CCCCCCOC(C)(C)C(=O)O [Example 40, 2-{6-[2-(4-Fluorophenyl)-5-methyloxazol-4-yl]hexyloxy}-2-methylpropionic acid]
melting point: 64 to 67 °C

Cc1oc(-c2ccc(C(C)(C)C)cc2)nc1CCCCCCOC(C)(C)C(=O)O [Example 41, 2-{6-[2-(4-tert-Butylphenyl)-5-methyloxazol-4-yl]hexyloxy}-2-methylpropionic acid]
melting point: 89 to 91 °C

CCc1oc(-c2ccccc2)nc1CCCCCCOC(C)(C)C(=O)O [Example 42, 2-[6-(5-Ethyl-2-phenyloxazol-4-yl)hexyloxy]-2-methylpropionic acid]
melting point: 88.5 to 89 °C

CC(C)(OCCCCCCc1coc(-c2ccccc2)n1)C(=O)O [Example 43, 2-Methyl-2-[6-(2-phenyloxazol-4-yl)hexyloxy]propionic acid]
melting point: 75 to 77 °C

CC(C)(OCCCCCCCc1coc(-c2ccccc2)n1)C(=O)O [Example 44, 2-Methyl-2-[7-(2-phenyloxazol-4-yl)heptyloxy]propionic acid]
melting point: 72 to 75 °C

CC(C)(OCCCCCCCCc1coc(-c2ccccc2)n1)C(=O)O [Example 45, 2-Methyl-2-[8-(2-phenyloxazol-4-yl)octyloxy]propionic acid]
melting point: 59 to 61 °C

CC(C)(OCCCCCCCc1coc(-c2ccc(Cl)cc2)n1)C(=O)O [Example 46, 2-{7-[2-(4-Chlorophenyl)oxazol-4-yl]heptyloxy}-2-methylpropionic acid]
melting point: 91 to 93 °C

CC(C)(OCCCCCCCc1coc(-c2ccc(F)cc2)n1)C(=O)O [Example 47, 2-{7-[2-(4-Fluorophenyl)oxazol-4-yl]heptyloxy}-2-methylpropionic acid]
melting point: 67 to 74 °C

CC(C)(OCCCCCCc1coc(-c2ccc(F)cc2)n1)C(=O)O [Example 48, 2-{6-[2-(4-Fluorophenyl)oxazol-4-yl]hexyloxy}-2-methylpropionic acid]
melting point: 80 to 83 °C

CC(C)(OCCCCCCCc1csc(-c2ccccc2)n1)C(=O)O [Example 49, 2-Methyl-2-[7-(2-phenylthiazol-4-yl)heptyloxy]propionic acid]
melting point: 71 to 72 °C

CC(C)(OCCCCCCCCc1csc(-c2ccccc2)n1)C(=O)O [Example 50, 2-Methyl-2-[8-(2-phenylthiazol-4-yl)octyloxy]propionic acid]
melting point: 64 to 70 °C

Cc1oc(-c2ccncc2)nc1CCCCCCOC(C)(C)C(=O)O [Example 51, 2-Methyl-2-{6-[5-methyl-2-(4-pyridyl)oxazol-4-yl]hexyloxy}propionic acid]
melting point: 91 to 93 °C

Cc1oc(-c2cccs2)nc1CCCCC1COC(C)(C(=O)O)OC1 (stereo not shown) [Example 75, 2-Methyl-c-5-{4-[5-methyl-2-(2-thienyl)oxazol-4-yl]butyl}-1,3-dioxane-r-2-carboxylic acid]
Percent change of each parameter compared to control group (%): AI (KK-A^y mice; dose 3 mg/kg): −61%
Percent change of each parameter compared to control group (%): BG (KK-A^y mice; dose 3 mg/kg): −23%
Percent change of each parameter compared to control group (%): Ins (KK-A^y mice; dose 3 mg/kg): −29%
Percent change of each parameter compared to control group (%): TG (KK-A^y mice; dose 3 mg/kg): −47%
Percent change of each parameter compared to control group (%): HDL-C (KK-A^y mice; dose 3 mg/kg): 37%
Percent change of each parameter compared to control group (%): (V)LDL-C (KK-A^y mice; dose 3 mg/kg): −50%

Cc1ccc(-c2nc(Cc3cccc(CC4COC(C)(C(=O)O)OC4)c3)c(C)o2)cc1 (stereo not shown) [Example 81, 2-Methyl-t-5-[3-{[5-methyl-2-(p-tolyl)oxazol-4-yl]methyl}benzyl]-1,3-dioxane-r-2-carboxylic acid]
Percent change of each parameter compared to control group (%): AI (KK-A^y mice; dose 1 mg/kg): −83%
Percent change of each parameter compared to control group (%): BG (KK-A^y mice; dose 1 mg/kg): −8%
Percent change of each parameter compared to control group (%): Ins (KK-A^y mice; dose 1 mg/kg): −21%
Percent change of each parameter compared to control group (%): TG (KK-A^y mice; dose 1 mg/kg): −62%
Percent change of each parameter compared to control group (%): HDL-C (KK-A^y mice; dose 1 mg/kg): 32%
Percent change of each parameter compared to control group (%): (V)LDL-C (KK-A^y mice; dose 1 mg/kg): −76%

Cc1ccc(-c2nc(CCCCCCOC(C)(C)C#N)c(C)o2)cc1 [Example 85, 2-Methyl-2-{6-[5-methyl-2-(p-tolyl)oxazol-4-yl]-hexyloxy}propiononitrile]
melting point: 36 °C

Cc1ccc(-c2nc(CCCCCCOC(C)(C)c3nnn[nH]3)c(C)o2)cc1 [Example 86, 5-[1-Methyl-1-{6-[5-methyl-2-(p-tolyl)oxazol-4-yl]hexyloxy}ethyl]tetrazole]
melting point: 87 °C

Cc1c(C)c2c(c(C)c1O)CCC(C)(COc1ccc(CC3SC(=O)NC3=O)cc1)O2 (stereo not shown) [Troglitazone, 5-[4-(6-hydroxy-2,5,7,8-tetramethylchroman-2-ylmethoxy)benzyl]-2,4-thiazolidinedione, reference compound]
Percent change of each parameter compared to control group (%): AI (KK-A^y mice; dose 300 mg/kg): −7%
Percent change of each parameter compared to control group (%): BG (KK-A^y mice; dose 300 mg/kg): −9%
Percent change of each parameter compared to control group (%): Ins (KK-A^y mice; dose 300 mg/kg): −22%
Percent change of each parameter compared to control group (%): TG (KK-A^y mice; dose 300 mg/kg): −11%
Percent change of each parameter compared to control group (%): HDL-C (KK-A^y mice; dose 300 mg/kg): −8%
Percent change of each parameter compared to control group (%): (V)LDL-C (KK-A^y mice; dose 300 mg/kg): −26%
